This test deals with whole blood clots. Nature of the test: Whole blood clot lysis induced by tPA. In kind it is cell-based, human. To be noted: for inhibition of clot lysis at high concentrations: up to 1,000 nM. The protocol: Whole blood clots were formed from human blood collected from healthy donors. Halo-shaped clots were generated by mixing whole blood with 15% of a mixture containing recombinant tissue factor supplemented with synthetic phospholipids Dade Innovin, Siemens Germany and 67 mM CaCl2 in HBS at 1:4 ratio. The plate was sealed and incubated at 37° C. for 60 min before use.
Clot lysis was induced by the addition of tPA to 7 nM and antibodies or Plm inhibitors at the following concentrations: 0-312.5 nM B10; 0-1000 nM α2AP; 0-1000 nM aprotinin; 0-7.5 mM TXA. Clot lysis leads to an […] of turbidity and was monitored at OD610 nm using a plate reader.
The time required to achieve 50% clot lysis was used for IC50 calculation. […] B10 was more than 180-fold more efficacious than TXA (not shown).

For `NC[C@H]1CC[C@H](C(=O)O)CC1` [TXA, tranexamic acid, reference compound], where the note is “7 nM tPA, data not shown”, the “concentration of total inhibition of clot lysis” value was no less than 300 µM. Also, the “effect on clot lysis” value (concentration up to 100 μM) is “delayed clot lysis”.

In the case of Aprotinin [reference compound], the “inhibition of clot lysis at high concentrations” value was “only partially inhibit clot lysis”.

B1: alpha-2-antiplasmin (protein)
chain: NQEQVSPLTLLKLGNQEPGGQTALKSPPGVCSRDPTPEQTHRLARAMMAFTADLFSLVAQTSTCPNLILSPLSVALALSHLALGAQNHTLQRLQQVLHAGSGPCLPHLLSRLCQDLGPGAFRLAARMYLQKGFPIKEDFLEQSEQLFGAKPVSLTGKQEDDLANINQWVKEATEGKIQEFLSGLPEDTVLLLLNAIHFQGFWRNKFDPSLTQRDSFHLDEQFTVPVEMMQARTYPLRWFLLEQPEIQVAHFPFKNNMSFVVLVPTHFEWNVSQVLANLSWDTLHPPLVWERPTKVRLPKLYLKHQMDLVATLSQLGLQELFQAPDLRGISEQSLVVSGVQHQSTLELSEVGVEAAAATSIAMSRMSLSSFSVNRPFLFFIFEDTTGLPLFVGSVRNPNPSAPRELKEQQDSPGNKDFLQSLKGFPRGDKLFGPDLKLVPPMEEDYPQFGSPK
On to B1, for which the “inhibition of clot lysis at high concentrations” value is reported as “only partially inhibit clot lysis”.

These data come from US12686727B2, “Antibodies for binding plasmin” (MONASH UNIVERSITY, priority 2019, dated 2026).
